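Following 48 hours of exposure in 96-well plates, responses at five concentrations were used to interpolate endpoints linearly. GI50: concentration for 50% inhibition of growth. Definition used: TGI = concentration required for complete inhibition of growth.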
Legend:
Experiment in all cases: NCI anticancer screen, dose series, 48 h
[1] = system: HT29 colon
[2] = system: LOX IMVI melanoma
[3] = system: UACC-257 melanoma
[4] = system: COLO 205 colon
[5] = system: RXF 393 renal
[6] = system: U251 CNS
[7] = system: A498 renal
[8] = system: SK-OV-3 ovarian
[9] = system: SNB-19 CNS
[10] = system: NCI-H522 lung

| Compound | GI50 [1] [µM] | TGI [1] [µM] | GI50 [2] [µM] | TGI [2] [µM] | GI50 [3] [µM] | TGI [3] [µM] | GI50 [4] [µM] | TGI [4] [µM] | GI50 [5] [µM] | TGI [5] [µM] | GI50 [6] [µM] | TGI [6] [µM] | GI50 [7] [µM] | TGI [7] [µM] | GI50 [8] [µM] | TGI [8] [µM] | GI50 [9] [µM] | TGI [9] [µM] | GI50 [10] [µM] | TGI [10] [µM] |
| --- | --- | --- | --- | --- | --- | --- | --- | --- | --- | --- | --- | --- | --- | --- | --- | --- | --- | --- | --- | --- |
| C[CH2][Sn]([CH2]C)([O]C(=O)c1cccc(F)c1)[O][Sn]([CH2]C)([CH2]C)[O]C(=O)c1cccc(F)c1 | 35.4 | > 100 | 15.9 | 29.6 | 16.8 | 30.9 | 18.3 | 32.2 | 14.5 | 27.7 | 16.9 | 30.6 | 16.5 | 30.2 | > 100 | > 100 | 20.2 | 39.5 | 1.32 | 2.65 |
| O=C1C[C@H]2CC3(CC[C@H]2CN1)OCCO3 |  | > 100 |  | > 100 |  | > 100 |  | > 100 |  | > 100 |  | > 100 |  | > 100 |  | > 100 |  | > 100 |  | > 100 |
| COCCNC(=O)c1ccc(-c2nc3ccc4[nH]ncc4c3c3c2CCCC3)cc1 | 3.11 | > 100 | 2.88 | > 100 | 5.38 | > 100 | 2.83 | 15 | 0.498 | 3.7 | 2.6 | > 100 | 0.174 | 2.93 | 0.905 | 5.59 | 3.79 | > 100 | 1.92 | 12.4 |
| c1ccc(SC(CCCCOC2CCCCO2)Sc2ccccc2)cc1 (stereo not given) |  | > 100 |  | > 100 |  | > 100 |  | > 100 |  | > 100 |  | > 100 |  | > 100 |  | > 100 |  | > 100 |  | 53.8 |
| O=C(CCCCCCC(=O)Nc1ccc2c(c1)/C(=C/c1ccc[nH]1)C(=O)N2)NO | 0.506 | 8.51 | 0.548 | 2.08 | 0.353 | 5.44 | 0.245 | 1.4 | 0.487 | 3.66 | 0.416 | 2.29 | 0.358 | 2.06 | 0.341 | 3.85 | 0.585 | 33.2 | 0.0829 | 0.891 |
| N#Cc1nc2cc(F)c(F)cc2nc1-c1ccc(Cl)cc1 | 7.8 | > 100 | 1.32 | 2.68 | 22.1 | > 58.3 | 26.9 | > 100 | 6.23 | 18.3 | 10.4 | 25 | 82 | > 100 | > 46.7 | > 88 | 14.5 | > 85.9 | 13.5 | > 48.2 |
| COc1ccc2c(c1)OC(N)=C(C#N)C2c1ccc(F)cc1 (stereo not given) | 0.625 | 13.5 | 1.98 | > 100 | 24.5 | > 100 | 1.74 | 10.1 | 2.28 | 17.8 | 3.08 | > 100 | 2.81 | 63.4 | 2.94 | 66.3 | 2.25 | > 100 | 0.604 | 27.1 |
| COC(=O)[C@@]1(O)C[C@H]2O[C@]1(C)n1c3ccccc3c3c4c(c5c6ccccc6n2c5c31)C(=O)NC4 | 0.212 | 2.09 | 0.197 | 1.21 | 0.527 | 3.33 | 0.231 | 0.692 | 0.159 | 1.49 | 1.02 | 3.05 | 0.0712 | 0.585 | 0.0336 | 0.926 | 1.1 | 4.05 | 0.0616 | 1.71 |
| N#CC1=C(N)Oc2c(sc3c(F)cccc23)C1c1ccc(F)cc1 (stereo not given) | 1.62 | 12.5 | 0.727 | 12.2 | 16.6 | 39.5 | 2.83 | 13.2 | 1.07 | 6.31 | 0.569 | 15.3 | 0.15 | 0.909 | 1.61 | 19.7 | 0.585 | 15 | 0.473 | 10.8 |

— PubChem BioAssay (NCI)
